From publication PMC11270681, “Synthesis and Systematic Investigation of Lepidiline A and Its Gold(I), Silver(I), and Copper(I) Complexes Using In Vitro Cancer Models and Multipotent Stem Cells” (ACS Omega, 2024)
“And” between values parts separate entries of the source, which are not always exact repeats. Equal entries are not always repeated. Blank lines part the entries; values can stand above or below the molecule they belong to.

What was measured:
IGROV-1 = assay: Cytotoxicity (PrestoBlue), ovarian cancer line; format: cell-based; conditions: IGROV-1, 72 h incubation
Protocol: (§1) OVCAR-3 (OVC-3) and OVCAR-8 (OVC-8) ovarian serous adenocarcinomas, IGROV-1 ovarian endometrioid adenocarcinoma, OVCAR-5 (OVC-5) upper gastrointestinal carcinoma, MDA-MB-231 breast adenocarcinoma, and MCF-7 and T-47D invasive breast carcinomas were purchased from the Developmental Therapeutic Program of the National Cancer Institute (NIH, USA) and were cultured in an RPMI medium (Thermo Fisher). Mes-Sa and Mes-Sa/Dx5 uterine sarcoma cell lines were purchased from American Type Culture Collection (ATCC) and were kept in DMEM (Thermo Fisher). Mes-Sa B1 was transfected with the human MDR1 gene, and Mes-Sa mCherry, Mes-Sa B1 mOrange, and Mes-Sa/Dx5 eGFP were engineered to stably express the respective fluorescent proteins previously.[51] Culture media for cancer cells were supplemented with 10% fetal bovine serum, 2 mM L-glutamine, and 100 units/mL penicillin and 100 μg/mL streptomycin (Thermo Fisher). The adipose tissue and bone marrow-derived mesenchymal stem cells (AD-MSC and BM-MSC) were described previously[37] and were kept in DMEM-F12 (Gibco) supplemented with 10% fetal bovine serum, L-glutamine (Thermo Fisher), 0.1% gentamicin (Gibco, 50 mg/mL), and 16 ng/mL fibroblast growth factor 2 (Peprotech). Cells were kept at 37 °C under 5% CO2 and were negative for mycoplasma infection.
(§2) Cytotoxicities of the nonfluorescent cancer cells were assessed with a PrestoBlue cell viability reagent (Thermo Fisher). Briefly, 2500 cells/well were seeded on 384-well plates; then, the next-day drugs were added. After 72 h of incubation, PrestoBlue was added in a 10% final concentration, and after an hour of additional incubation, plates were measured with a PerkinElmer EnSpire plate reader at 555 nm/585 nm excitation/emission wavelengths. Stem cells were seeded on 96-well plates at a density of 5000 cells/well, and the following day, drugs were added for 96 h of incubation; then, viability was assessed with 10% PrestoBlue diluted in PBS. Fluorescent cancer cells were admixed before seeding on 384-well plates at an 800 cells/well density each, thus altogether 2400 cells/well. Drugs were added the following day, and the intensity of the fluorescent proteins was measured after 144 h of incubation at the respective fluorescent channels (excitation/emission, eGFP: 485 nm/510 nm; mCherry: 585 nm/610 nm; mOrange: 545 nm/567 nm). pIC50 values were calculated by a custom program written by Judit Sessler in C#. IC50 values and standard deviation were calculated from average pIC50 values from at least 3 independent measurements.

OVC-3 = assay: Cytotoxicity (PrestoBlue), ovarian cancer line; format: cell-based; conditions: OVC-3, 72 h incubation
Protocol: as §1, §2

OVC-8 = assay: Cytotoxicity (PrestoBlue), ovarian cancer line; format: cell-based; conditions: OVC-8, 72 h incubation
Protocol: as §1, §2

OVC-5 = assay: Cytotoxicity (PrestoBlue), upper gastrointestinal cancer line; format: cell-based; conditions: for IC50: OVC-5, 72 h incubation, PrestoBlue
Protocol: as §1, §2

MCF-7 [1] = assay: Cytotoxicity (PrestoBlue), breast cancer line; format: cell-based; conditions: MCF-7, 72 h incubation
Protocol: as §1, §2

MDA-MB-231 = assay: Cytotoxicity (PrestoBlue), breast cancer line; format: cell-based; conditions: MDA-MB-231, 72 h incubation
Protocol: as §1, §2

T-47D [2] = assay: Cytotoxicity (PrestoBlue), breast cancer line; format: cell-based; conditions: 72 h incubation
Protocol: as §1, §2

Mes-Sa [3] = assay: Cytotoxicity, uterine sarcoma parental line; format: cell-based; conditions: fluorescent protein intensity after 144 h
Protocol: as §1, §2

Mes-Sa B1 = assay: Cytotoxicity, MDR1-transfected uterine sarcoma line; format: cell-based; conditions: Mes-Sa B1 (MDR1 transfected, ABCB1 expressing), fluorescent protein intensity after 144 h
Protocol: as §1, §2

Mes-Sa/Dx5 = assay: Cytotoxicity, doxorubicin-selected MDR uterine sarcoma line; format: cell-based; conditions: Mes-Sa/Dx5 (doxorubicin selected, ABCB1 expressing), fluorescent protein intensity after 144 h
Protocol: as §1, §2

AD-MSC = assay: Cytotoxicity (PrestoBlue), adipose-derived mesenchymal stem cells; format: cell-based; conditions: 96 h incubation
Protocol: as §1, §2

BM-MSC = assay: Cytotoxicity (PrestoBlue), bone marrow-derived mesenchymal stem cells; format: cell-based; conditions: 96 h incubation
Protocol: as §1, §2

im. BM-MSC = assay: Cytotoxicity (PrestoBlue), immortalized bone marrow MSC; format: cell-based; conditions: 96 h incubation
Protocol: as §1, §2

[4] = system: 3 ovarium cancer lines (IGROV-1, OVC-3, and OVC-8); assay: Cytotoxicity, range over 3 ovarium cancer lines; format: cell-based; conditions: IGROV-1, OVC-3, OVC-8
Protocol: as §1, §2

[5] = system: 3 breast cancer cell lines (MDA-MB-231, MCF-7 and T-47D); assay: Cytotoxicity, range over 3 breast cancer cell lines; format: cell-based; conditions: MDA-MB-231, MCF-7, T-47D
Protocol: as §1, §2

[6] = system: Bone marrow MSCs (BM-MSC); assay: Cytotoxicity, range over bone marrow MSCs; format: cell-based; conditions: BM-MSC and immortalized BM-MSC
Protocol: as §1, §2

MCF-7 [7] = assay: H2DCFDA intracellular ROS production assay; format: cell-based; conditions: MCF-7, 50 μM, 4 h incubation
Protocol: (§3) To assess intracellular ROS production, we used a H2DCFDA cellular ROS assay kit (ab113851, Abcam) according to the manufacturer’s instructions. Briefly, 20,000 cells were seeded on 96-well plates. On the following day, cells were washed, and H2DCFDA solution, prepared by avoiding direct light, was added for 45 min. Next, cells were washed, and 50 μM samples of test compounds were aspirated on the cells in a complete and phenol red-free medium (FluoroBrite, Thermo Fisher). At each hour, fluorescence of 2′,7′-dichlorofluorescein (DCF) was measured at 484 nm/535 nm excitation/emission wavelengths. Values were normalized to 0 h measurements. Values indicate at least 3 independent measurements.

Mes-Sa [8] = assay: H2DCFDA intracellular ROS production assay; format: cell-based; conditions: 50 μM, 4 h incubation
Protocol: as §3

T-47D [9] = assay: H2DCFDA intracellular ROS production assay; format: cell-based; conditions: 50 μM, 4 h incubation
Protocol: as §3

[10] = Stability in serum-free culture medium by HPLC-UV; format: physicochemical; conditions: for AUC (HPLC-UV), single measurements 1-5 / AUC (HPLC-UV), average: serum-free culture medium
Protocol: Stability of the metal complexes in solution was measured in serum-free culture medium. The compounds were dissolved in DMSO right before the experiment. Solutions of Cu-LA and Ag-LA contained 1% final volume of DMSO, while Au-LA contained 30% DMSO. Samples were taken right after dilution, and after 1 h, 2 h, 4 h, 8 h, 16 h, 32 and 48 h, and measured by HPLC-UV.

MSCs = assay: Cytotoxicity, range over MSCs; format: cell-based; conditions: BMMSC; AD-MSC, BM-MSC, immortalized BM-MSC
Protocol: as §1
(§4) Cytotoxicities of the nonfluorescent cancer cells were assessed with a PrestoBlue cell viability reagent (Thermo Fisher). Briefly, 2500 cells/well were seeded on 384-well plates; then, the next-day drugs were added. After 72 h of incubation, PrestoBlue was added in a 10% final concentration, and after an hour of additional incubation, plates were measured with a PerkinElmer EnSpire plate reader at 555 nm/585 nm excitation/emission wavelengths. Stem cells were seeded on 96-well plates at a density of 5000 cells/well, and the following day, drugs were added for 96 h of incubation; then, viability was assessed with 10% PrestoBlue diluted in PBS. […] IC50 values and standard deviation were calculated from average pIC50 values from at least 3 independent measurements.

cancer lines = assay: Cytotoxicity, range over cancer lines; format: cell-based; conditions: read-out: IC50 range over non-MDR cancer cells
Protocol: as §1, §4

AUC (HPLC-UV), single measurements 1-5 ([10]; 0 h): 898 and 911 and 926 and 921 and 877
AUC (HPLC-UV), average ([10]; 0 h, Cu-LA, Ag-LA 1% DMSO, Au-LA 30% DMSO): 907
AUC (HPLC-UV), average ([10]; 1 h): 922
AUC (HPLC-UV), single measurements 1-5 ([10]; 1 h): 923 and 921 and 920
AUC (HPLC-UV), average ([10]; 2 h): 923
AUC (HPLC-UV), single measurements 1-5 ([10]; 2 h): 922 and 921 and 923 and 928
AUC (HPLC-UV), average ([10]; 4 h): 924
AUC (HPLC-UV), single measurements 1-5 ([10]; 4 h): 921 and 925 and 927 and 920 and 928
AUC (HPLC-UV), average ([10]; 8 h): 923
AUC (HPLC-UV), single measurements 1-5 ([10]; 8 h): 922 and 924 and 923
AUC (HPLC-UV), average ([10]; 16 h): 922
AUC (HPLC-UV), single measurements 1-5 ([10]; 16 h): 921 and 922
AUC (HPLC-UV), average ([10]; 32 h): 925
AUC (HPLC-UV), single measurements 1-5 ([10]; 32 h): 925 and 926 and 924
AUC (HPLC-UV), average ([10]; 48 h): 921
AUC (HPLC-UV), single measurements 1-5 ([10]; 48 h): 917 and 922 and 920
Stability in serum-free culture medium ([10]; HPLC-UV, observed 48 h): stable
SMILES: Cc1c(C)n(Cc2ccccc2)[c](=[Ag][Cl])n1Cc1ccccc1 [Ag-LA, Chloro-(1,3-dibenzyl-4,5-dimethyl-imidazol-2-ylidene)silver]
IC50 (IGROV-1): 15 µM
IC50 (OVC-3): 16.3 µM
IC50 (OVC-8): 17.4 µM
IC50 (OVC-5): 40.7 µM
Lower susceptibility of OVC-5 compared to the ovarian cancer lines (OVC-5; OVC-5 vs ovarian cancer lines): 2.5 fold
IC50 (MCF-7 [1]): 10.9 µM
IC50 (MDA-MB-231): 12 µM
IC50 (T-47D [2]): 5.83 µM
IC50 (Mes-Sa [3]): 7.9 µM
IC50 (Mes-Sa B1): 20.5 µM
IC50 (Mes-Sa/Dx5): 12 µM
IC50 (AD-MSC): 15.6 µM
IC50 (BM-MSC): 15.7 µM
IC50 (im. BM-MSC): 13.6 µM
IC50 [4]: 10.5 to 17.4 µM
IC50 [5]: 5.8 to 12 µM
IC50 [6]: 5.7 to 15.7 µM
More ROS compared to the medium (MCF-7 [7]): ~30%
More ROS compared to the medium (Mes-Sa [8]): ~50%
Intracellular ROS production compared to the medium (T-47D [9]): ROS was not elevated

SMILES: COc1cccc2c1C(=O)c1c(O)c3c(c(O)c1C2=O)C[C@@](O)(C(=O)CO)C[C@@H]3O[C@H]1C[C@H](N)[C@H](O)[C@H](C)O1 [Doxorubicin, doxorubicin, reference compound]
IC50 (OVC-8): 0.19 µM
IC50 (MDA-MB-231; Homo sapiens): 0.22 µM
IC50 (Mes-Sa [3]; Homo sapiens): 0.038 µM
IC50 (Mes-Sa/Dx5; Homo sapiens, MES-SA/Dx5, 144 h): 2.41 µM
IC50 (AD-MSC; Mesenchymal stem cells, 96 h): 0.13 µM
IC50 (BM-MSC; BMMSC): 0.1 µM
IC50 (im. BM-MSC; BMMSC): 0.067 µM
IC50 (MSCs): 0.067 to 0.13 µM
IC50 (cancer lines): 0.034 to 0.22 µM

SMILES: N.N.[Cl][Pt][Cl] [Cisplatin, cisplatin, reference compound]
IC50 (IGROV-1): 2.19 µM
IC50 (OVC-3): 6.64 µM
IC50 (OVC-8): 6.34 µM
IC50 (OVC-5): 7 µM
IC50 (MCF-7 [1]): 2.71 µM
IC50 (MDA-MB-231): 2.17 µM
IC50 (T-47D [2]): 5.99 µM
IC50 (Mes-Sa [3]): 1.84 µM
IC50 (Mes-Sa B1): 2.09 µM
IC50 (Mes-Sa/Dx5): 4.71 µM
IC50 (AD-MSC): 16.7 µM
IC50 (BM-MSC): 2.32 µM
IC50 (im. BM-MSC): 1.97 µM
IC50 [5]: 2.2 to 6 µM
IC50 [6]: 2 to 2.3 µM
